Data published in article PMC4503439, “Dose-Independent ADME Properties and Tentative Identification of Metabolites of α-Mangostin from Garcinia mangostana in Mice by Automated Microsampling and UPLC-MS/MS Methods” (PLoS ONE, 2015).
Read-outs that look alike come from different tables or passages of the source.

How the values were obtained:
[1] = Pharmacokinetics of α-MG after intravenous administration to mice (automated microsampling); format: in vivo; settings: for CL renal / MRT / clearance / AUC / half-life / Vd: mouse, plasma; for half-life: read-out: Terminal half-life; for Vd: read-out: V ss
Experimental: The surgical procedures were conducted under intramuscular injection anesthesia with 125 mg (1.5 mL)/kg of tiletamine HCl and zolazepam HCl mixture. The carotid artery (for intravenous and oral studies) and the jugular vein (for intravenous study) were cannulated using CX-2052S and CX-2022S catheters (BASi, West Lafayette, IN), respectively. After the mice awoke from anesthesia, the administration of α-MG and blood sampling were performed, [12], [31].
In intravenous study, α-MG (dissolved in PEG 400: distilled water = 6:4, v/v) at doses of 5, 10 and 20 mg (5 mL)/kg was administered through the jugular vein. The micro-sampling system (Culex BASi, West Lafayette, IN) was programmed to collect a 10 μL sample of blood into a micro-vial containing 50 μL of 12.5 units/mL heparinized saline. Blood loss due to blood sampling was replaced with equal volumes of heparinized saline. Blood samples were collected at 0, 1, 5, 15, 30, 60, 90, 120, 180, 240, 300 and 360 min after intravenous administration of the α-MG with virtually no blood loss. After centrifugation of each micro-vial, 50 μL of supernatant was collected. At the end of 24 h, each metabolic cage was rinsed with 5 mL of distilled water and the resulting fluid combined with the urine collected over the previous 24 h. At this time, each mouse was sacrificed by cervical dislocation, and then the entire gastrointestinal tract (including its contents and feces) was removed, transferred into a beaker that contained 10 mL of methanol (to facilitate the extraction of α-MG) and the gastrointestinal tract was cut into small pieces. After manual shaking and stirring, a 50 μL aliquot of the supernatant was collected from each beaker and stored.
The analytical method for measuring α-MG was modified from a previous report. In sample preparation, 100 μL of acetonitrile containing 1 μg/mL IS was added to 50 μL of aliquot of the sample. After vortex-mixing and centrifugation (15000 × g for 10 min), 10 μL of the supernatant was directly injected into a reversed-phase C18 column (Cadenza CD-C18, 2 mm × 75 mm i.d., 3-μm particle size; Imtakt, USA) kept at 4°C until injection. The analytes were monitored using a API4000 triple quadrupole mass spectrometer (AB Sciex, Foster City, CA) equipped with a turbo ion-spray interface for electrospray ionization and operated in positive ion mode at 5500 V and 500°C at 50 L/min of nebulizing gas flow, 50 L/min of turbo ion-spray gas flow, 20 L/min of curtain gas flow, 5500 V of ring voltage and 5 Torr of collision gas (nitrogen) pressure.
Standard methods were used to calculate the following pharmacokinetic parameters using a non-compartmental analysis (WinNonlin 2.1; Pharmasight Corp., Mountain View, CA). The extent of absolute oral bioavailability (F) was calculated by dividing the AUCoral/AUCiv at the same dose. The peak plasma concentration (C max) and time to reach C max (T max) were read directly from the […] data.

[2] = Tentative identification of metabolites from α-MG by UPLC-MS/MS; format: in vivo; settings: mice after intravenous and oral α-MG; S9 fractions after 30-min incubation
From the text: Probable metabolites of α-MG were identified using the simultaneous full scan MS, MRM and MS/MS modes in a Waters UPLC-XEVO TQ system (Waters Corporation, Milford, USA) to confirm the structures of any metabolites. […] Structural elucidation of the metabolites was based on the fragmentation patterns of parent ion from the MS/MS mode at a collision energy of 10 to 20 eV generating daughter ions. The mass transitions for α-MG was m/z 411.21 → 354.85 (collision energy of 20 eV and collision cell exit potential of 25 eV, respectively). The unknown masses were further analyzed in MS/MS (daughter scan) mode with the electrospray ionization interface used to generate positive and negative ions at a capillary voltage of 3.0 kV, source temperature of 350°C and desolvation gas temperature of 650°C. The MRM methods for identification of possible metabolites generated by phase I and/or II reactions were included.
These compounds were separated on a reversed-phase C18 column (XSELECT CSH, 2.1 mm × 100 mm i.d., 1.7-μm particle size; Waters, Ireland) with a flow rate of 0.35 mL/min. The mobile phase composition was started at 95: 5 (v/v) of distilled water containing 0.1% formic acid (A) and acetonitrile (B) and gradually changed to 35: 65 (v/v) for 30 min, and then switched back to 95: 5 (v/v) for 40 min.

[3] = intravenous, doses of 5, 10 and 20 mg/kg

COc1c(O)cc2oc3cc(O)c(CC=C(C)C)c(O)c3c(=O)c2c1CC=C(C)C [α-MG, α-Mangostin]
CLR, fu (CLR based on free fraction in plasma) ([1]; estimated from CLR and unbound fraction): 1.72 to 3.44 mL/min/kg
Ae 0–24 h (excreted in the urine as unchanged α-MG) ([1]; intravenous, 5 mg/kg): 0.839 ± 0.525 % of dose
CLNR ([1]; intravenous, 5 mg/kg): 31.1 ± 7.14 mL/min/kg
GI 24 h (remaining in the gastrointestinal tract at 24 h as unchanged α-MG) ([1]; intravenous, 5 mg/kg): 3.44 ± 1.16 % of dose
Ae 0–24 h (excreted in the urine as unchanged α-MG) ([1]; intravenous, 10 mg/kg): 0.592 ± 0.394 % of dose
CLNR ([1]; intravenous, 10 mg/kg): 31.1 ± 7.83 mL/min/kg
GI 24 h (remaining in the gastrointestinal tract at 24 h as unchanged α-MG) ([1]; intravenous, 10 mg/kg): 2.28 ± 1.96 % of dose
Ae 0–24 h (excreted in the urine as unchanged α-MG) ([1]; intravenous, 20 mg/kg): 0.403 ± 0.163 % of dose
CLNR ([1]; intravenous, 20 mg/kg): 34.6 ± 12.3 mL/min/kg
GI 24 h (remaining in the gastrointestinal tract at 24 h as unchanged α-MG) ([1]; intravenous, 20 mg/kg): 3.42 ± 1.73 % of dose
Ae 0–24 h [1, 3]: less than 0.839 % of the intravenous dose
GI 24 h [1, 3]: less than 3.44 % of the doses
CL renal ([1]; intravenous, 5 mg/kg): 0.283 ± 0.194 mL/min/kg
MRT ([1]; intravenous, 5 mg/kg): 2.42 h
clearance ([1]; intravenous, 5 mg/kg): 31.4 ± 7.28 mL/min/kg
AUC ([1]; intravenous, 5 mg/kg (n = 9)): 2820 ng·h/mL
half-life ([1]; intravenous, 5 mg/kg): 3.77 ± 0.572 h
Vd ([1]; intravenous, 5 mg/kg): 4.3 ± 1.01 L/kg
CL renal ([1]; intravenous, 10 mg/kg): 0.205 ± 0.15 mL/min/kg
MRT ([1]; intravenous, 10 mg/kg): 2.67 h
clearance ([1]; intravenous, 10 mg/kg): 31.3 ± 7.95 mL/min/kg
AUC ([1]; intravenous, 10 mg/kg (n = 8)): 5670 ng·h/mL
half-life ([1]; intravenous, 10 mg/kg): 3.65 ± 1.23 h
Vd ([1]; intravenous, 10 mg/kg): 4.27 ± 1.97 L/kg
CL renal ([1]; intravenous, 20 mg/kg): 0.141 ± 0.0801 mL/min/kg
MRT ([1]; intravenous, 20 mg/kg): 2.4 h
clearance ([1]; intravenous, 20 mg/kg): 34.7 ± 12.4 mL/min/kg
AUC ([1]; intravenous, 20 mg/kg (n = 8)): 10600 ng·h/mL
half-life ([1]; intravenous, 20 mg/kg): 2.88 ± 1.2 h
Vd ([1]; intravenous, 20 mg/kg): 4.5 ± 1.38 L/kg
clearance ([1]; intravenous, range over doses (Table 1)): 31.3 to 34.7 mL/min/kg
Source (samples in which detected) [2]: plasma, urine, feces, liver, small intestine, S9 fractions of liver and small intestine
